Results on two compounds are retold here after ChEMBL document CHEMBL4507298 (2021).

Some results are limits rather than exact numbers.

One data set concerns the target Prostacyclin receptor (Homo sapiens, UniProt P43119). Briefly: Binding assay (PTGIR).
In data set [1] the target is T1, 5-hydroxytryptamine receptor 3A (Homo sapiens) (UniProt P46098).
T1 sequence (whole entry): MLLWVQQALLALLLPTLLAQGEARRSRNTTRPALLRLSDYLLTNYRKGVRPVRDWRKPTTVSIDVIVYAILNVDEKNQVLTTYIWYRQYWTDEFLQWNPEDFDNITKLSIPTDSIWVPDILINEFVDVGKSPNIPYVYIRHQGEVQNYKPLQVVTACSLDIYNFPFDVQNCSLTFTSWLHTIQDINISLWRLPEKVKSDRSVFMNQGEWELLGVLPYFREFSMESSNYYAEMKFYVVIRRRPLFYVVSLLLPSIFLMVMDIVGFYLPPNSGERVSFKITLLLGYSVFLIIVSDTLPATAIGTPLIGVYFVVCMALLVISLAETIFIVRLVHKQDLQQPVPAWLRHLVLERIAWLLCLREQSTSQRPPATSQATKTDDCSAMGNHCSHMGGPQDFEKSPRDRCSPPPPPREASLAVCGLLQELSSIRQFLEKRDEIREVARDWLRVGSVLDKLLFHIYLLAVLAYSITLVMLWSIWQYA
Nature of the data set: 5-HT3 (h) CEREP ligand profiling. Particulars: Compound concentration 10.0 uM; call rule not given here.

Data set [2] has as its target Angiotensin-converting enzyme (Homo sapiens) (UniProt P12821). Briefly: ACE (h) CEREP ligand profiling. As to conditions: Compound concentration 10.0 uM.
Data set [3] addresses Calcium/calmodulin-dependent protein kinase type II subunit alpha (Homo sapiens) (UniProt Q9UQM7). Briefly: CaMK2alpha (h) CEREP ligand profiling. Particulars: Compound concentration 10.0 uM.
In data set [4] the target is Prostaglandin G/H synthase 2 (Homo sapiens) (UniProt P35354). Nature of the data set: COX2 (h) CEREP ligand profiling. As to conditions: Compound concentration 10.0 uM.
In a further data set the target is CYP2C9 (Homo sapiens, UniProt P11712). Briefly: CYP2C9 inhibition CEREP ligand profiling. As to conditions: compound concentration 10 uM.
A further data set deals with CYP3A4 (Homo sapiens, UniProt P08684). Nature of the data set: CYP3A4 inhibition CEREP ligand profiling. As to conditions: compound concentration 10 uM.
The target of data set [5] is D(3) dopamine receptor (Homo sapiens) (UniProt P35462). Nature of the data set: D3 (h) CEREP ligand profiling. Particulars: Compound concentration 10.0 uM.
The nature of data set [6]: Glycine (strychnine-insensitive) CEREP ligand profiling. Particulars: Compound concentration 10.0 uM.
For data set [7], the target named is ALK tyrosine kinase receptor (Homo sapiens) (UniProt Q9UM73). As to conditions: Compound concentration 1000.0 nM.
Data set [8] concerns the target NUAK family SNF1-like kinase 1 (Homo sapiens) (UniProt O60285). As to conditions: Compound concentration 1000.0 nM.
Data set [9] deals with Protein-tyrosine kinase 6 (Homo sapiens) (UniProt Q13882). Particulars: Compound concentration 1000.0 nM.
The target in data set [10] is Calcium/calmodulin-dependent protein kinase kinase 1 (Homo sapiens) (UniProt Q8N5S9). Particulars: Compound concentration 1000.0 nM.
For data set [11], the target named is Calcium/calmodulin-dependent protein kinase kinase 2 (Homo sapiens) (UniProt Q96RR4). Particulars: Compound concentration 1000.0 nM.
Data set [12] deals with Cyclin-dependent kinase 19 (Homo sapiens) (UniProt Q9BWU1). As to conditions: Compound concentration 1000.0 nM.
For data set [13], the target named is Cyclin-dependent kinase 2 (Homo sapiens) (UniProt P24941). Particulars: Compound concentration 1000.0 nM.
In data set [14] the target is Casein kinase I isoform epsilon (Homo sapiens) (UniProt P49674). As to conditions: Compound concentration 1000.0 nM.
The target in data set [15] is Ephrin type-B receptor 3 (Homo sapiens) (UniProt P54753). Particulars: Compound concentration 1000.0 nM.
Data set [16] concerns the target Mitogen-activated protein kinase 6 (Homo sapiens) (UniProt Q16659). As to conditions: Compound concentration 1000.0 nM.
Data set [17] has as its target Mitogen-activated protein kinase 10 (Homo sapiens) (UniProt P53779). As to conditions: Compound concentration 1000.0 nM.
Data set [18] concerns the target Mitogen-activated protein kinase kinase kinase kinase 5 (Homo sapiens) (UniProt Q9Y4K4). As to conditions: Compound concentration 1000.0 nM.
In data set [19] the target is Maternal embryonic leucine zipper kinase (Homo sapiens) (UniProt Q14680). As to conditions: Compound concentration 1000.0 nM.
Data set [20] addresses Muscle, skeletal receptor tyrosine-protein kinase (Homo sapiens) (UniProt O15146). Particulars: Compound concentration 1000.0 nM.
Data set [21] addresses Phosphatidylinositol 5-phosphate 4-kinase type-2 beta (Homo sapiens) (UniProt P78356). As to conditions: Compound concentration 1000.0 nM.
For data set [22], the target named is Serine/threonine-protein kinase SIK3 (Homo sapiens) (UniProt Q9Y2K2). Particulars: Compound concentration 1000.0 nM.
In data set [23] the test system is Proto-oncogene tyrosine-protein kinase receptor Ret (Homo sapiens), P07949 [M918T]. As to conditions: Compound concentration 1000.0 nM.
Data set [24] concerns Proto-oncogene tyrosine-protein kinase receptor Ret (Homo sapiens), P07949 [V804L]. Particulars: Compound concentration 1000.0 nM.
The target in data set [25] is Serine/threonine-protein kinase 16 (Homo sapiens) (UniProt O75716). Particulars: Compound concentration 1000.0 nM.
For data set [26], the target named is TRAF2 and NCK-interacting protein kinase (Homo sapiens) (UniProt Q9UKE5). Particulars: Compound concentration 1000.0 nM.
Data set [27] concerns the target Testis-specific serine/threonine-protein kinase 3 (Homo sapiens) (UniProt Q96PN8). Particulars: Compound concentration 1000.0 nM.
Data set [28] has as its target Serine/threonine-protein kinase WNK3 (Homo sapiens) (UniProt Q9BYP7). As to conditions: Compound concentration 1000.0 nM.
Data set [29] concerns the target Serine/threonine-protein kinase 32A (Homo sapiens) (UniProt Q8WU08). Particulars: Compound concentration 1000.0 nM.
Another data set addresses Histamine H4 receptor (Homo sapiens, UniProt Q9H3N8). Nature of the data set: GPCRScan assay: inhibition of H4. Set-up: radioligand conc. used [nm] 1.0 – 5.0, parental cells HEK T.
For another data set, the species on record is Rattus norvegicus. Particulars: Compound concentration 10.0 uM.

Chain of Calcium/calmodulin-dependent protein kinase type II subunit alpha (Homo sapiens) (Q9UQM7 whole entry): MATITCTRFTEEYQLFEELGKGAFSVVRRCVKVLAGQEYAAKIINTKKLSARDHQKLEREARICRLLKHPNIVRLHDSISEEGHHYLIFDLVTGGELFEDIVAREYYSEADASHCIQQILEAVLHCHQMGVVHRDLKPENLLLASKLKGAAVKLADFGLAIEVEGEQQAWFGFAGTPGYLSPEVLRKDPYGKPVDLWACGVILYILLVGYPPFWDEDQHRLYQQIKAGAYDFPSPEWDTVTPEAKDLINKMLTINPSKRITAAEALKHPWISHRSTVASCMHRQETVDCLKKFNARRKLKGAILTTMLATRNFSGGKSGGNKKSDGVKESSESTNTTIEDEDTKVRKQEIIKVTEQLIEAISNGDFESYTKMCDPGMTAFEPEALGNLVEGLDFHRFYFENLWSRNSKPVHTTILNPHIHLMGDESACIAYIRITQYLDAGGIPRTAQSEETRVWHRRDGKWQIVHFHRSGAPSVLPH
Chain of D(3) dopamine receptor (Homo sapiens) (P35462 whole entry): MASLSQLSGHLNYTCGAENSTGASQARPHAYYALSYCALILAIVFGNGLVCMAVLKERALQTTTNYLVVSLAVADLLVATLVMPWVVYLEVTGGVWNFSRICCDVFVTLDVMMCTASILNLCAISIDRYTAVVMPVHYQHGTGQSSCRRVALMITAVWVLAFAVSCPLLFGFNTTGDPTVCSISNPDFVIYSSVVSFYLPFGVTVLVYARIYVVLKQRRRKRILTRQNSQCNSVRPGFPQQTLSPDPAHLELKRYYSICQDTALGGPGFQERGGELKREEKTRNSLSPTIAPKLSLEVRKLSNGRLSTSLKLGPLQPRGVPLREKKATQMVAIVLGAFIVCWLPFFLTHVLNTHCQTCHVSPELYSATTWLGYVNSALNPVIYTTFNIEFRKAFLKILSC
Chain of Testis-specific serine/threonine-protein kinase 3 (Homo sapiens) (Q96PN8 whole entry): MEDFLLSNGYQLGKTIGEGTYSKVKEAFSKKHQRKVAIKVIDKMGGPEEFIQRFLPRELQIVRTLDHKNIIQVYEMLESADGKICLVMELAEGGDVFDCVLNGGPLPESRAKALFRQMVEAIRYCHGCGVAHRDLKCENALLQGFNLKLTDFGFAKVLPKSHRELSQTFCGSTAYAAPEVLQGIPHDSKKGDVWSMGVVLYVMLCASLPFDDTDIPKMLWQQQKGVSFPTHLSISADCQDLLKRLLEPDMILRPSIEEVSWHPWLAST
Chain of Casein kinase I isoform epsilon (Homo sapiens) (P49674 whole entry, looked up, canonical isoform): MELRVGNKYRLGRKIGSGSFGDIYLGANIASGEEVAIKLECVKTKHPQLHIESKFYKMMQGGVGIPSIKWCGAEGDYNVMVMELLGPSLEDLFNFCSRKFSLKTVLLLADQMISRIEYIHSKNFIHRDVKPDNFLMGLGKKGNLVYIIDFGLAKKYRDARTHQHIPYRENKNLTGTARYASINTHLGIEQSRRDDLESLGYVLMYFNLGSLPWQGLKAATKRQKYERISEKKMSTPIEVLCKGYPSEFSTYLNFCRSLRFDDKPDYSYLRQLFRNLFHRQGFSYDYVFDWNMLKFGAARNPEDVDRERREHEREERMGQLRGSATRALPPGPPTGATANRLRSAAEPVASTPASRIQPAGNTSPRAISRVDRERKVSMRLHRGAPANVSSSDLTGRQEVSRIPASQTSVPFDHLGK
Chain of CYP3A4 (P08684 whole entry): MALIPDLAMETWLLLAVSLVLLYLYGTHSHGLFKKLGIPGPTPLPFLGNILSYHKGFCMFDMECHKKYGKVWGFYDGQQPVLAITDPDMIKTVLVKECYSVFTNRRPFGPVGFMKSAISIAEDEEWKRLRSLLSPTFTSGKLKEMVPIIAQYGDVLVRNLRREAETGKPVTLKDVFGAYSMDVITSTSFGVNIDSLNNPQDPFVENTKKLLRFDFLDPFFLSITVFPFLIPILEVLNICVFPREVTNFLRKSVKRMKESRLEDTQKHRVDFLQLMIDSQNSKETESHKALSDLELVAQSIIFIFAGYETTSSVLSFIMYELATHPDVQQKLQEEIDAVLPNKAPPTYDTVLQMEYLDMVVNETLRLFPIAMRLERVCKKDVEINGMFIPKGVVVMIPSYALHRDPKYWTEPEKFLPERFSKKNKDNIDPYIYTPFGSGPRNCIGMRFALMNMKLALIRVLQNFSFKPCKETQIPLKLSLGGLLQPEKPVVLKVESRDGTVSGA
Chain of Serine/threonine-protein kinase WNK3 (Homo sapiens) (Q9BYP7 whole entry): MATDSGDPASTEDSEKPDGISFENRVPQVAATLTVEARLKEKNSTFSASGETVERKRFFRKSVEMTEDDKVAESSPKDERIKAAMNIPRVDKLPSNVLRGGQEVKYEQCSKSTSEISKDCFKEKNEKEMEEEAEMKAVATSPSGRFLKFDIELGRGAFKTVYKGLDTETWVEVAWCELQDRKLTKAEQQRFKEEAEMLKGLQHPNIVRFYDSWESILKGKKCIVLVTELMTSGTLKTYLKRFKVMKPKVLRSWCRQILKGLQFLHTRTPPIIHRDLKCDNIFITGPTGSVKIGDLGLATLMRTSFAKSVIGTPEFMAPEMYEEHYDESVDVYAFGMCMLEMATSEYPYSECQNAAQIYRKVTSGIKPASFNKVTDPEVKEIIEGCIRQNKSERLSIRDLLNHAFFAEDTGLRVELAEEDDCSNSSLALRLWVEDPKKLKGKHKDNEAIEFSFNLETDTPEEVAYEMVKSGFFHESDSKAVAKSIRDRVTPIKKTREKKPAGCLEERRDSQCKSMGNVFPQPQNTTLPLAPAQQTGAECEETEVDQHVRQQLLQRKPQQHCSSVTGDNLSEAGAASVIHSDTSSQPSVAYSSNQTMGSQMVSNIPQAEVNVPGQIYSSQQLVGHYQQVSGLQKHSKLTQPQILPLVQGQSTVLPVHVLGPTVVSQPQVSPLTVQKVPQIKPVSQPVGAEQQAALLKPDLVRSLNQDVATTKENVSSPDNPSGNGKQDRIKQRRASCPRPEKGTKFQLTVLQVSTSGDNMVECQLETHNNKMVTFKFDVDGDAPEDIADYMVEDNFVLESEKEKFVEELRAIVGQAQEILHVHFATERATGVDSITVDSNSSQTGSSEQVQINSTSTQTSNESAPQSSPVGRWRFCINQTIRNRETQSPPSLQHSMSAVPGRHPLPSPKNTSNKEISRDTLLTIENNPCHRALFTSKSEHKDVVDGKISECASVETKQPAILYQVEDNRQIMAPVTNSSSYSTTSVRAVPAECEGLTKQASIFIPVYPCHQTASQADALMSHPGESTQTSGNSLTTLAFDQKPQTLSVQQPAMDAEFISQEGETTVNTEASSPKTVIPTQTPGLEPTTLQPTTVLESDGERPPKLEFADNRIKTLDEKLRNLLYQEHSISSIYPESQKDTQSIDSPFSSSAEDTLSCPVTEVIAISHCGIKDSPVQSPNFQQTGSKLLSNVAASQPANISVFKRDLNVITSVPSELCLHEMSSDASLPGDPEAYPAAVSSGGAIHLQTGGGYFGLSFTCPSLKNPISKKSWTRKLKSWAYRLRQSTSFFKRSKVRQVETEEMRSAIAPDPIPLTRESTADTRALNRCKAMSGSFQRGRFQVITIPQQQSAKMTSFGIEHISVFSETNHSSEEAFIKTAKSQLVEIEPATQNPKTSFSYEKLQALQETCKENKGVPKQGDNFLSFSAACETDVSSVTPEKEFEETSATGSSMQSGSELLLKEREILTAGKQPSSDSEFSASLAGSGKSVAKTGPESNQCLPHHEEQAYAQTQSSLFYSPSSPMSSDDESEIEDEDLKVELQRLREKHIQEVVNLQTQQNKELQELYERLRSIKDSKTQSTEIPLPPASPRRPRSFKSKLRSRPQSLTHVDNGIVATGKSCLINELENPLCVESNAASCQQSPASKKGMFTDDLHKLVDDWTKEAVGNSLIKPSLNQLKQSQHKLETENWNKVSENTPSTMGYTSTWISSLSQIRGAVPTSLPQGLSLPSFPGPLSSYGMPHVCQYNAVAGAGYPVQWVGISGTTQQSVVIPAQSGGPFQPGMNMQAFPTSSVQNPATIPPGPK
Chain of NUAK family SNF1-like kinase 1 (Homo sapiens) (O60285 whole entry): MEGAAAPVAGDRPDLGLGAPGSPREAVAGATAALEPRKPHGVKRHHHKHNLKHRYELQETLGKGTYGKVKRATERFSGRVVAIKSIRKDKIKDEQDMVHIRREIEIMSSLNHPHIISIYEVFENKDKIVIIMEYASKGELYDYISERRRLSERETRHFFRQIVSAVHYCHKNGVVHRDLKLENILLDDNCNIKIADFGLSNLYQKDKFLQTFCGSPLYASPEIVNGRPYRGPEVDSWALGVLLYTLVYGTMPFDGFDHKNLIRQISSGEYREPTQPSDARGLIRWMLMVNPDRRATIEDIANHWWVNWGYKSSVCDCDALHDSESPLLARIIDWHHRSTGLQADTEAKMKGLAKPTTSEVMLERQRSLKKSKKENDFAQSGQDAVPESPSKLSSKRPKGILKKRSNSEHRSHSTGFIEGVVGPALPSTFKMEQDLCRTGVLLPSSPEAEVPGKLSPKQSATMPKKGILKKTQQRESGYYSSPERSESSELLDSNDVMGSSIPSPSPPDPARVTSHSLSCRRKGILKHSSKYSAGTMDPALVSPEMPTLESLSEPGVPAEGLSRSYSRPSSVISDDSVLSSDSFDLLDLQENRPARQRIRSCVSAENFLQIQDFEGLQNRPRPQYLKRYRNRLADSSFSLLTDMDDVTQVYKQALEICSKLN
Chain of Mitogen-activated protein kinase 10 (Homo sapiens) (P53779 whole entry): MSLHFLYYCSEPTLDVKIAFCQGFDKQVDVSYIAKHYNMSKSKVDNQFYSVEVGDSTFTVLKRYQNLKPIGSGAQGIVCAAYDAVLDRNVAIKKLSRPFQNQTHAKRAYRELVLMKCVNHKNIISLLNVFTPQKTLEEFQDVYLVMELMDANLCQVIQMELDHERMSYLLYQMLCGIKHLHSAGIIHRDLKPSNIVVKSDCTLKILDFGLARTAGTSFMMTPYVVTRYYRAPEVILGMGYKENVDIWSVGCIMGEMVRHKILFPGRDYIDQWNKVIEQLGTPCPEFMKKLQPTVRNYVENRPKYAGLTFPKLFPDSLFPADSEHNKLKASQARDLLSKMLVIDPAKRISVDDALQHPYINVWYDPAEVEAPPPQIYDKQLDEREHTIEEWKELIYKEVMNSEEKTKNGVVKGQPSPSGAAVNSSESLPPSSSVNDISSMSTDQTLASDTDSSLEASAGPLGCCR

In the case of `COc1ccc2cc(OCC3(C(=O)O)CN(C(=O)c4ccc(F)cc4)C3)ccc2c1` [PF-04418948], on Prostacyclin receptor, the Ki (as a rule, the equilibrium dissociation constant of an inhibitor or competing ligand from its target) is > 10 µM (not active). Further, the inhibition (in general, the relative decrease from the control value, in per cent) was -6% in data set [1]; 14% in data set [2]; 5% in [3]; 2% in data set [4]; 1% in [5]; 11% in [6]. For the same compound, the figures for the inhibition at 10 µM against CYP2C9 and on CYP3A4 were 41% (not active) and 17% (not active), respectively. Further, the residual activity is 79% in [7]; 94% in data set [8]; 99% in data set [9]; 91% in data set [10]; 94% in data set [11]; 95% in data set [12]. Moreover, the residual activity was 91% in [13]; 94% in data set [14]; 99% in data set [15]; 88% in data set [16]; 85% in [17]; 86% in data set [18]. Besides, the residual activity in data set [19] is 86%; in [20], 72%; in data set [21] it was 74%; in data set [22] it was 72%; in data set [23], 75%; in data set [24] it was 78%. Also, the residual activity is 88% in [25]; 61% in data set [26]; 82% in [27]; 93% in data set [28]; 97% in data set [29].

With `O=C(c1ccc(F)cc1)N1CC(COc2ccc(Br)cc2)(C(=O)O)C1` [PF-04475866], on Histamine H4 receptor, the Ki is 10 µM. Further, the inhibition in the data set filed under Rattus norvegicus was 16.3%.
